From patent publication US9371331B2, “Modulators of methyl modifying enzymes, compositions and uses thereof” (Constellation Pharmaceuticals, Inc., priority 2012, dated 2016) come the findings set out here.

Counter-ions that a name gives are not always drawn. Like-named read-outs stand apart in the source and are kept apart here. Bounds are passed on as bounds.

For assay [1], the target named is EZH2 (rPRC2) (Homo sapiens, UniProt Q15910). The experiment in a line: EZH2 assay: rPRC2, biotinylated oligonucleosomes, 3H SAM methyl transfer (FlashPlate scintillation). It is filed as biochemical. Particulars: biotinylated oligonucleosome substrate.
EZH2 (rPRC2), sequence (Q15910 whole entry): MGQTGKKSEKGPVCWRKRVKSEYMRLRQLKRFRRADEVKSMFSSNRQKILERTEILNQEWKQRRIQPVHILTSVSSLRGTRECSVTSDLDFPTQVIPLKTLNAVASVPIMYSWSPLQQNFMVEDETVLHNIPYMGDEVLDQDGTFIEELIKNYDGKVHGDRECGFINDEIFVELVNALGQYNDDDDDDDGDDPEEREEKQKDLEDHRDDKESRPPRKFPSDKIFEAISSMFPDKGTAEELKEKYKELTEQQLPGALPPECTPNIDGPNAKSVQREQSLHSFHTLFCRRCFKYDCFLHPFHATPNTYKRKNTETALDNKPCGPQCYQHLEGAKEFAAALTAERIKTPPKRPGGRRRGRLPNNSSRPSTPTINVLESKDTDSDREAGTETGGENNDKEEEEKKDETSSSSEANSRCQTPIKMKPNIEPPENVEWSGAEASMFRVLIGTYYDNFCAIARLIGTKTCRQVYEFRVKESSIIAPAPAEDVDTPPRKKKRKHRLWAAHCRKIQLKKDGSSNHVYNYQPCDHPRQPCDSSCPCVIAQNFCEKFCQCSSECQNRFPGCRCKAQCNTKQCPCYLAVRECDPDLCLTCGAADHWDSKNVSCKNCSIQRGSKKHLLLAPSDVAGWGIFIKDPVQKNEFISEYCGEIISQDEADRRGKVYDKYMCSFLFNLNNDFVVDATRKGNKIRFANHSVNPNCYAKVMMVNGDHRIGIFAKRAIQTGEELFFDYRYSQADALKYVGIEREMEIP
EZH2 (rPRC2), sequence (O75530 whole entry partner): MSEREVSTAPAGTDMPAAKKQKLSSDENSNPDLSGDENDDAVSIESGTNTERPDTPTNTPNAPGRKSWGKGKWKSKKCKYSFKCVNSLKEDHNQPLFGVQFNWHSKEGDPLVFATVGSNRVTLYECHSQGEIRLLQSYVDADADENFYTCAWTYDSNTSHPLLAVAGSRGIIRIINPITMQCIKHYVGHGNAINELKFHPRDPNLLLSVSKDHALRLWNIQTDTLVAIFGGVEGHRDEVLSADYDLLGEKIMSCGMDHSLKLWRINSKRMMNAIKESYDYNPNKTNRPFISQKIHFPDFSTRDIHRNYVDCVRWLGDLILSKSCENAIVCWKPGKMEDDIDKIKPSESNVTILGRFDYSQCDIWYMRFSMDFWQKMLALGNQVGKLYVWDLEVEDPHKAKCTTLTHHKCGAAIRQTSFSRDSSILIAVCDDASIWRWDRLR
EZH2 (rPRC2), sequence (Q15022 whole entry partner): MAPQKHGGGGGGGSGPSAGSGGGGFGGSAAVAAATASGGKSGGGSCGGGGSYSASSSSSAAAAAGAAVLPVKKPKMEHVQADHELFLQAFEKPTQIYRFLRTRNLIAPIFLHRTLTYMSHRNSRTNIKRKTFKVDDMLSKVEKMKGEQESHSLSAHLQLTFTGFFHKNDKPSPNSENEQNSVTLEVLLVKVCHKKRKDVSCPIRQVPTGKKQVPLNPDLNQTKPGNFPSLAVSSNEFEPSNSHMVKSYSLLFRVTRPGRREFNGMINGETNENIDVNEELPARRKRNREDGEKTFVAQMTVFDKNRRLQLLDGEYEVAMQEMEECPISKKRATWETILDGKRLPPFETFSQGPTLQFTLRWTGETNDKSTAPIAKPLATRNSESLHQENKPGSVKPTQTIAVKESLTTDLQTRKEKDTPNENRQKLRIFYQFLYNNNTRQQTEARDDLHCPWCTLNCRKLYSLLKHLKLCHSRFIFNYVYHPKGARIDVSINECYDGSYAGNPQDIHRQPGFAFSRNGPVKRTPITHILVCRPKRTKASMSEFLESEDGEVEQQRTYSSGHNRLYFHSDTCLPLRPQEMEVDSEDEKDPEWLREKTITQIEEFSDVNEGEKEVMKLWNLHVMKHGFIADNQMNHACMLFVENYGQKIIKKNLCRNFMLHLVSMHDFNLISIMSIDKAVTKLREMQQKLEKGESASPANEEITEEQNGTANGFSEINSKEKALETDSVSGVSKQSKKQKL
In assay [2] the target is Y641N EZH2 (Homo sapiens, UniProt Q15910, Y641N). Put plainly: Y641N EZH2 assay: as EZH2 assay, with reconstituted H3K27Me2 oligonucleosomes as substrate. In kind it is biochemical.
Y641N EZH2, sequence (Q15910 whole entry Y641N): as the sequence (Q15910 whole entry) above, with Y641N counted along it
Y641N EZH2, sequence (O75530 whole entry partner): as the sequence (O75530 whole entry partner) above
Y641N EZH2, sequence (Q15022 whole entry partner): as the sequence (Q15022 whole entry partner) above
[3] abbreviates: EZH2 IC50, wild-type EZH2 (rPRC2).
Where [4] appears, read: Y641N EZH2 IC50, Y641N mutant EZH2, H3K27Me2 oligonucleosome substrate.
Where [5] appears, read: wild-type EZH2 (rPRC2), read-out: EZH2 IC50.
The mark [6] stands for this setting: Y641N mutant EZH2, H3K27Me2 oligonucleosome substrate, read-out: Y641N EZH2 IC50.
[7] abbreviates: Y641N mutant EZH2, H3K27Me2 oligonucleosome substrate.

Consider `Cc1cc(C)c(CNC(=O)c2c(C)n(C(C)C3CC3)c3ncccc23)c(=O)[nH]1` (single isomer, unassigned) [Compound 252, (R or S)-(±)-1-(1-cyclopropylethyl)-N-((4,6-dimethyl-2-oxo-1,2-dihydropyridin-3-yl)methyl)-2-methyl-1H-pyrrolo[2,3-b]pyridine-3-carboxamide], for which the IC50 in assay [1] (setting [3]) was < 100 nM; in assay [2] (setting [4]) it was 100 to 1000 nM.
The corresponding values for `COCC(C)n1c(C)c(C(=O)NCc2c(OC)cc(C)[nH]c2=O)c2cccnc21` (single isomer, unassigned) [Compound 257, (R or S)-N-((4-methoxy-6-methyl-2-oxo-1,2-dihydropyridin-3-yl)methyl)-1-(1-methoxypropan-2-yl)-2-methyl-1H-pyrrolo[2,3-b]pyridine-3-carboxamide] are 100 to 1000 nM and 1000 to 10000 nM.
Turning to `COc1cc(C)[nH]c(=O)c1CNC(=O)c1c(C)n(C(C)C(C)OC)c2ncccc12` (single isomer, unassigned) [Compound 267, N-((4-methoxy-6-methyl-2-oxo-1,2-dihydropyridin-3-yl)methyl)-1-((2R or 2S, 3R or 3S)-3-methoxybutan-2-yl)-2-methyl-1H-pyrrolo[2,3-b]pyridine-3-carboxamide], the figures for the half-inhibitory concentration (IC50) in assay [1] (setting [5]) and in assay [2] (setting [6]) were < 100 nM and 100 to 1000 nM, respectively.
`COc1cc(C)[nH]c(=O)c1CNC(=O)c1c(C)n(C(C)c2ccn(C)c(=O)c2)c2ncccc12` (single isomer, unassigned) [Compound 268, (R or S)-N-((4-methoxy-6-methyl-2-oxo-1,2-dihydropyridin-3-yl)methyl)-2-methyl-1-(1-(1-methyl-2-oxo-1,2-dihydropyridin-4-yl)ethyl)-1H-pyrrolo[2,3-b]pyridine-3-carboxamide]: the IC50 was < 100 nM in assay [1] (setting [3]) and 100 to 1000 nM in assay [2] (setting [4]).
In the same order, the values of `COc1cc(C)[nH]c(=O)c1CNC(=O)c1c(C)n(C(C)c2ccn(C)c(=O)c2)c2ncccc12` (single isomer, unassigned) [Compound 269, (R or S)-N-((4-methoxy-6-methyl-2-oxo-1,2-dihydropyridin-3-yl)methyl)-2-methyl-1-(1-(1-methyl-2-oxo-1,2-dihydropyridin-4-yl)ethyl)-1H-pyrrolo[2,3-b]pyridine-3-carboxamide] are 100 to 1000 nM and 1000 to 10000 nM.
For `COc1cc(C)[nH]c(=O)c1CNC(=O)c1c(C)n(C(C)CS(C)(=O)=O)c2ccccc12` (single isomer, unassigned) [Compound 278, (R or S)-N-((4-methoxy-6-methyl-2-oxo-1,2-dihydropyridin-3-yl)methyl)-2-methyl-1-(1-(methylsulfonyl)propan-2-yl)-1H-indole-3-carboxamide], the half-maximal inhibitory concentration (IC50) fell in the range of 100 to 1000 nM in assay [1] (setting [3]) and 1000 to 10000 nM in assay [2] (setting [4]).
In the same order, the values of `COc1cc(C)[nH]c(=O)c1CNC(=O)c1c(C)n([C@H](C)[C@H](OC)C2CC2)c2ncccc12` (single isomer, unassigned) [Compound 285, 1-((1R or S, 2R or S)-1-cyclopropyl-1-methoxypropan-2-yl)-N-((4-methoxy-6-methyl-2-oxo-1,2-dihydropyridin-3-yl)methyl)-2-methyl-1H-pyrrolo[2,3-b]pyridine-3-carboxamide] are 100 to 1000 nM and 1000 to 10000 nM.
The corresponding values for `COc1cc(C)[nH]c(=O)c1CNC(=O)c1c(C)n([C@H](C)[C@H](OC)C2CC2)c2ncccc12` (single isomer, unassigned) [Compound 292, 1-((1R or S, 2R or S)-1-cyclopropyl-1-methoxypropan-2-yl)-N-((4-methoxy-6-methyl-2-oxo-1,2-dihydropyridin-3-yl)methyl)-2-methyl-1H-pyrrolo[2,3-b]pyridine-3-carboxamide] are < 100 nM and 100 to 1000 nM.
Consider `COc1cc(C)[nH]c(=O)c1CNC(=O)c1c(C)n(C(C)C(C)OC)c2ncccc12` (single isomer, unassigned) [Compound 302, N-((4-methoxy-6-methyl-2-oxo-1,2-dihydropyridin-3-yl)methyl)-1-((2R or 2S, 3R or 3S)-3-methoxybutan-2-yl)-2-methyl-1H-pyrrolo[2,3-b]pyridine-3-carboxamide], for which the IC50 lay in the range of 100 to 1000 nM in assay [1] (setting [3]) and 1000 to 10000 nM in assay [2] (setting [4]).
In the case of `COc1cc(C)[nH]c(=O)c1CNC(=O)c1c(C)n(C(C)C2CCS(=O)(=O)CC2)c2ccccc12` (single isomer, unassigned) [Compound 305, (R or S)-1-(1-(1,1-dioxidotetrahydro-2H-thiopyran-4-yl)ethy1)-N-((4-methoxy-6-methyl-2-oxo-1,2-dihydropyridin-3-yl)methy1)-2-methyl-1H-indole-3-carboxamide], the IC50 in assay [1] (setting [3]) was < 100 nM; in assay [2] (setting [4]) it was 100 to 1000 nM.
The corresponding values for `COc1cc(C)[nH]c(=O)c1CNC(=O)c1c(C)n(C(C)C(C)OC)c2ccccc12` (single isomer, unassigned) [Compound 307, Trans-(R or S, R or S)-N-((4-methoxy-6-methyl-2-oxo-1,2-dihydropyridin-3-yl)methyl)-1-(3-methoxybutan-2-yl)-2-methyl-1H-indole-3-carboxamide] are < 100 nM and < 100 nM.
`COc1cc(C)[nH]c(=O)c1CNC(=O)c1c(C)n(C(C)C(C)OC)c2ccccc12` (single isomer, unassigned) [Compound 308, Trans-(R or S, R or S)-N-((4-methoxy-6-methyl-2-oxo-1,2-dihydropyridin-3-yl)methyl)-1-(3-methoxybutan-2-yl)-2-methyl-1H-indole-3-carboxamide]: the IC50 in assay [1] (setting [3]) and in assay [2] (setting [4]) was 100 to 1000 nM in each case.
In the case of `COc1cc(C)[nH]c(=O)c1CNC(=O)c1c(C)n(C(C)C2CCN(CC(=O)O)CC2)c2ccccc12` (single isomer, unassigned) [Compound 364, (R or S)-2-(4-(1-(3-((4-methoxy-6-methyl-2-oxo-1,2-dihydropyridin-3-yl)methylcarbamoyl)-2-methyl-1H-indol-1-yl)ethyl)piperidin-1-yl) acetic acid], the concentration for half-maximal inhibition (IC50) in assay [1] (setting [3]) is < 100 nM; in assay [2] (setting [4]), 100 to 1000 nM.
For `Cc1cc(C)c(CNC(=O)c2c(C)n(C(C)C3CCN(C4CNC4)CC3)c3ccccc23)c(=O)[nH]1` (single isomer, unassigned) [Compound 376, (R or S)-1-(1-(1-(azetidin-3-yl)piperidin-4-yl)ethyl)-N-((4,6-dimethyl-2-oxo-1,2-dihydropyridin-3-yl)methyl)-2-methyl-1 H-indole-3-carboxamide hydrochloride], the half-maximal inhibitory concentration (IC50) in assay [1] (setting [3]) and in assay [2] (setting [4]) was < 100 nM throughout.
As for `Cc1cc(C)c(CNC(=O)c2c(-c3ccccc3)n(C(C)c3ccccc3)c3ccccc23)c(O)n1` (single isomer, unassigned) [Compound 445, (R or S)-N-((2-hydroxy-4,6-dimethylpyridin-3-yl)methyl)-2-phenyl-1-(1-phenylethyl)-1H-indole-3-carboxamide], in assay [1] (wild-type EZH2 (rPRC2)), the “EZH2 IC50” value was “*(10 uM)”. Also, the “Y641N EZH2 IC50” value in assay [2] (setting [7]) is reported as “*(10 uM)”.
In the case of `Cc1cc(C)c(CNC(=O)c2cnn(-c3ccccc3)c2C)c(=O)[nH]1` [Compound 100, N-((4,6-dimethyl-2-oxo-1,2-dihydropyridin-3-yl)methyl)-5-methyl-1-phenyl-1H-pyrazole-4-carboxamide], the IC50 in assay [1] (setting [5]) was 1000 to 10000 nM; in assay [2] (setting [6]) it was > 10000 nM.
On to `Cc1cc(C)c(CNC(=O)c2cnn(Cc3ccccc3)c2C)c(O)n1` [Compound 109, 1-benzyl-N-((2-hydroxy-4,6-dimethylpyridin-3-yl)methyl)-5-methyl-1H-pyrazole-4-carboxamide], for which the “EZH2 IC50” value in assay [1] (wild-type EZH2 (rPRC2)) is on record as “*(10 μM)”. For the same molecule, the “Y641N EZH2 IC50” value in assay [2] (setting [7]) is given as “*(10 μM)”.
Regarding `Cc1cc(C)c(CNC(=O)c2cnn(CCc3ccccc3)c2C)c(O)n1` [Compound 110, N-((2-hydroxy-4,6-dimethylpyridin-3-yl)methyl)-5-methyl-1-phenethyl-1H-pyrazole-4-carboxamide], the “EZH2 IC50” value in assay [1] (wild-type EZH2 (rPRC2)) is reported as “*(10 μM)”. Also, the “Y641N EZH2 IC50” value in assay [2] (setting [7]) is “*(10 μM)”.
Consider `Cc1cc(C)c(CNC(=O)c2nn(C(C)c3ccccc3)c3ccccc23)c(O)n1` (stereo not drawn) [Compound 112, N-((2-hydroxy-4,6-dimethylpyridin-3-yl)methyl)-1-(1-phenylethyl)-1H-indazole-3-carboxamide], for which the “EZH2 IC50” value in assay [1] (wild-type EZH2 (rPRC2)) is given as “*(10 μM)”. Further, in assay [2] (setting [7]), the “Y641N EZH2 IC50” value is on record as “*(10 μM)”.
For `Cc1cc(C)c(CNC(=O)c2cn(-c3ccccc3C)c3ccccc23)c(O)n1` [Compound 113, N-((2-hydroxy-4,6-dimethylpyridin-3-yl)methyl)-1-(o-tolyl)-1H-indole-3-carboxamide], the IC50 was in the range of 100 to 1000 nM in assay [1] (setting [5]) and 1000 to 10000 nM in assay [2] (setting [6]).
Consider `Cc1cc(C)c(CNC(=O)c2c(C)n(Cc3ccccc3)c3ccccc23)c(O)n1` [Compound 119, 1-benzyl-N-((2-hydroxy-4,6-dimethylpyridin-3-yl)methyl)-2-methyl-1H-indole-3-carboxamide], for which the figures for the IC50 in assay [1] (setting [3]) and in assay [2] (setting [4]) were < 100 nM and 100 to 1000 nM, respectively.
With `Cc1cc(C)c(CNC(=O)c2c(C)n(-c3ccccc3)c3ccccc23)c(O)n1` [Compound 133, N-((2-hydroxy-4,6-dimethylpyridin-3-yl)methyl)-2-methyl-1-phenyl-1H-indole-3-carboxamide], the IC50 in assay [1] (setting [5]) is < 100 nM; in assay [2] (setting [6]), 100 to 1000 nM.
On to `Cc1cc(C)c(CNC(=O)c2cn(S(=O)(=O)c3ccccc3)c3ccccc23)c(=O)[nH]1` [Compound 135, N-((4,6-dimethyl-2-oxo-1,2-dihydropyridin-3-yl)methyl)-1-(phenylsulfonyl)-1H-indole-3-carboxamide], for which the half-maximal inhibitory concentration (IC50) is 1000 to 10000 nM in assay [1] (setting [5]) and > 10000 nM in assay [2] (setting [6]).
With `COc1ncc2c(C(=O)NCc3c(C)cc(C)nc3O)c(C)n([C@H](C)c3ccccc3)c2n1` [Compound 141, (R)—N-((2-hydroxy-4,6-dimethylpyridin-3-yl)methyl)-2-methoxy-6-methyl-7-(1-phenylethyl)-7H-pyrrolo[2,3-d]pyrimidine-5-carboxamide], the IC50 in assay [1] (setting [3]) lay in the range of 100 to 1000 nM; in assay [2] (setting [4]), 1000 to 10000 nM.
